The values that follow come from patent publication US8735411B2, “Macrocyclic benzofused pyrimidine derivatives” (AbbVie Inc., priority 2006, dated 2014).

The target in test [1] is T1, histamine H4 receptor (Homo sapiens, UniProt Q9H3N8). Kind of test: [3H]-histamine competition binding assay on membranes of transfected HEK-293 cells. Further details: expressed in transfected cells; host or cells: HEK-293 cells, transient transfection with pCINeo vector; membranes. The conditions noted are these: displacement of [3H]-histamine; Ki by Cheng-Prusoff equation; read-out: Potency. The protocol:
In this assay, membranes were prepared from HEK-293 cells transiently transfected with the pCINeo expression vector harboring the histamine H4 receptor by homogenization of the cells on ice in TE buffer (50 mM Tris-HCl buffer, pH 7.4, containing 5 mM EDTA), 1 mM benzamidine, 2 μg/ml aprotinin, 1 μg/ml leupeptin, and 1 μg/ml pepstatin. The homogenate was centrifuged at 40,000 g for 20 minutes at 4° C. This step was repeated, and the resulting pellet was resuspended in TE buffer. Aliquots were frozen at −70° C. until needed. On the day of assay, membranes were thawed and diluted with TE buffer. Competition radioligand binding assays were performed with increasing concentrations of test compound in the presence of [^3H]-histamine incubated at 25° C. for 1 hour in a total volume of 0.5 ml of 50 mM Tris, 5 mM EDTA, pH 7.4. All binding reactions were terminated by filtration under vacuum onto polyethylenimine (0.3%) presoaked Unifilters (PerkinElmer Life Sciences) or Whatman GF/B filters (Whatman, Clifton, N.J.) followed by three brief washes with 4 ml of ice-cold TE buffer. Bound radiolabel was determined by liquid scintillation counting. For all of the radioligand competition binding assays, IC50 values and Hill slopes were determined by Hill transformation of the data and Ki values were determined by the Cheng-Prusoff equation.
Target sequence in this assay (Q9H3N8 whole entry, species assumed): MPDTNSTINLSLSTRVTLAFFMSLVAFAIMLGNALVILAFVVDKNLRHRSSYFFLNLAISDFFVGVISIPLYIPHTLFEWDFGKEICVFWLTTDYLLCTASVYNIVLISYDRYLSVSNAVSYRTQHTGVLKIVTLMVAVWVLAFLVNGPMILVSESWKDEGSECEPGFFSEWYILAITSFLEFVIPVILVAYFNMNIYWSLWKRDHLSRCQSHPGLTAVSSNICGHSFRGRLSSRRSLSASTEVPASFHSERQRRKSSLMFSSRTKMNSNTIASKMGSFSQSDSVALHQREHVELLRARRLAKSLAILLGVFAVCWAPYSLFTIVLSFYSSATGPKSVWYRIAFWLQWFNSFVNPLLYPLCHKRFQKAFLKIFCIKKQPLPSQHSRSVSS

Test [2] concerns the target T1, histamine H4 receptor. The experiment in a line: In vitro histamine H4 potency in FLIPR (Ca2+ flux, HEK-293 cells coexpressing Gαqi5). The test is classed as cell-based. Further details: expressed in transfected cells. The conditions noted are these: Kb for antagonists and inverse agonists, EC50 for partial agonists. In a few lines: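 Fluo-4-loaded cells read on FLIPR for intracellular Ca2+ rise after compound addition, with pre-addition fluorescence subtracted. Peak responses per concentration expressed as % of the full-agonist histamine response. Concentration–response fits give Kb for antagonists/inverse agonists and EC50 for partial agonists.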
Background: A change in cytosolic calcium serves as a functional read-out for many receptors and channels.
Target sequence in this assay (Q9H3N8 whole entry): as the sequence (Q9H3N8 whole entry, species assumed) above

Test [3] concerns neuropathic pain. Kind of test: Analgesic effect against neuropathic pain: L5/L6 spinal nerve ligation (Chung model), von Frey mechanical allodynia. The test is classed as in vivo, rat. The conditions noted are these: 30 minutes before testing. The protocol:
Animals were prepared for testing, by use of a surgical procedure that induces neuropathic pain in one paw. Male Sprague Dawley rats were purchased from Charles River (Portage, Mich.). Prior to surgery, animals were housed in groups and maintained in a temperature-regulated environment. Following nerve ligation surgery, animals were housed in groups, and had access to food and water ad libitum.
The L5 and L6 spinal nerves of anesthetized rats were tightly ligated in a manner described previously (see Kim and Chung, Pain (1992) vol. 50 pp. 355-363). An incision was made on the dorsal portion of the hip and the muscle was blunt-dissected to reveal the spinal processes. The L6 transverse process was removed, and the left side L5 and L6 spinal nerves were tightly ligated with 5.0 braided silk suture. The wound was cleaned, the membrane sewn with 4.0 dissolvable Vicryl suture and the skin closed with wound clips. The paw affected by the surgical procedure (the left paw) develops an allodynic response, a hypersensitivity to mechanical and other stimuli; neuropathic pain is assessed as an increased sensitivity in the surgically affected (left) allodynic paw compared to the control paw on the right side, and measured by comparing the response of the (left side) allodynic paw to the response of the unaffected right side control paw.
For the assessment of neuropathic pain, mechanical allodynia in the affected paw of animals that had undergone spinal nerve ligation was evaluated using testing with von Frey filaments. As described previously by S. R. Chaplan, et al (“Quantitative assessment of tactile allodynia in the rat paw” J. Neurosci. Meth. (1994) vol. 53 pp. 55-63), two weeks following surgery rats were acclimated to a testing box constructed of plexiglass with a wire mesh floor which allowed access to the plantar surface of the animal's hindpaws. Using an Up-Down method (Dixon, Annu. Rev. Pharmacol. Toxicol. (1980) vol. 20, pp. 441-462; Chaplan et al. “Quantitative assessment of tactile allodynia in the rat paw” J. Neuroscience Methods (1994) vol. 53 pp. 55-63), von Frey filaments of increasing stiffness were applied to the plantar surface of the hindpaws and the withdrawal response of the animals was observed; for the surgically affected paw with neuropathic pain (the left side paw) the baseline level of allodynia has a withdrawal threshold of ≦4 g of pressure. […] The efficacy of the compound in reducing neuropathic pain at different doses is determined by comparing response in the surgery-affected paw versus the response in the control paw. This is expressed as the MPE (maximum percent effect), or 100 times the withdrawal threshold of the allodynic (left side) divided by the withdrawal threshold of the control (right side).

Test [4] concerns inflammatory pain. The experiment in a line: Analgesic effect against inflammatory pain: carrageenan-induced thermal hyperalgesia, hotbox assay. The test is classed as in vivo. The conditions noted are these: 100 micromole/kg i.p., 90 min after carrageenan, tested 30 min after dosing. The protocol: To assess the effectiveness of representative compounds of the invention against acute model inflammatory pain, animals were tested in an acute model of carrageenan-induced thermal hyperalgesia (see for example, Honore, et al. Behavioural Brain Research 167 (2006) 355-364; Porreca, et al. Journal of Pharmacology and Experimental Therapeutics (2006) vol. 318 pp. 195-205). Carrageenan was injected into the test paw of the animal, and after 90 minutes, the test drug was administered by intraperitoneal dosing; the effect on thermal hyperalgesia was assessed in a hotbox assay which done 30 minutes after the intraperitoneal dosing of the test drug, and the MPE (maximal percent effect) reported by comparison to the control paw (not injected with carrageenan), according to 100 times the withdrawal latency of the carrageenan injected paw (in seconds) divided by the withdrawal latency of the control (not injected with carrageenan) paw.

Test [5] deals with pain in a surgical skin incision model. The experiment in a line: Analgesic effect in surgical skin incision model, von Frey mechanical allodynia. The test is classed as in vivo, rat. On the procedure:
This is a surgical skin incision model (Joshi, et al. Pain 123 (2006) 75-82). Animals (rats) were prepared for testing by subjecting them in a surgical procedure carried out under sterile conditions, where the plantaris muscle was elevated and incised longitudinally with the origin and insertion of the muscle remaining intact. The skin was then closed with two mattress sutures (e.g. 5-0 nylon sutures). After surgery, animals were allowed to recover on a warming plate and housed individually in cages with soft bedding. […] Animals were tested for mechanical allodynia using von Frey hair mechanical stimulation 2, 24, and 48 h after surgery as described for the Chung model.

In the case of `Nc1nc2c(c(N3CCNCC3)n1)CCCc1ccccc1-2` [Example 7, 4-Piperazin-1-yl-6,7-dihydro-5H-benzo[6,7]cyclohepta[1,2-d]pyrimidin-2-ylamine], in test [1], the Ki is 8 nM. This compound registered a Potency in test [2] of 15 nM. Further, the figures for the MPE in test [3] (100 micromole/kg i.p.) and in test [4] were 30% and 23%, respectively.
As for `CNC1CN(c2nc(N)nc3c2CCCc2ccccc2-3)C1` [Example 3, 4-(3-Methylamino-azetidin-1-yl)-6,7-dihydro-5H-benzo[6,7]cyclohepta[1,2-d]pyrimidin-2-ylamine], in test [1], the Ki was 4 nM. The MPE is reported as 21% in test [5] (30 micromole/kg i.p.); 69% in test [5] (100 micromole/kg i.p.); 36% in test [3] (100 micromole/kg i.p.); 78% in test [3] (300 micromole/kg i.p.); 41% in test [4]. Besides, in test [2], the Potency came to 9.3 nM.
For the compound `Nc1nc2c(c(N3CC[C@@H](N)C3)n1)CCCc1ccccc1-2` [Example 16, 4-((3R)-3-Amino-pyrrolidin-1-yl)-6,7-dihydro-5H-benzo[6,7]cyclohepta[1,2-d]pyrimidin-2-ylamine], the MPE in test [3] (100 micromole/kg i.p.) came to 47%; in test [4], 68%.
In the case of `CN[C@@H]1CCN(c2nc(N)nc3c2CCCc2ccccc2-3)C1` [Example 6, 4-(3-(R)-Methylamino-pyrrolidin-1-yl)-6,7-dihydro-5H-benzo[6,7]cyclohepta[1,2-d]pyrimidin-2-ylamine], the Ki in test [1] worked out at 5 nM. The Potency in test [2] is on record as 6.6 nM.
